Legend:
[1] = Oral administration of Compound PC-4 and Compound 101 trypsin inhibitor to rats; type: in vivo
[2] = Oral administration of Compound PC-3 and Compound 101 trypsin inhibitor to rats; type: in vivo
[3] = Oral administration of Compound PC-1 and BBSI inhibitor to rats; type: in vivo; details: PC-1 20 mg/kg
[4] = Oral administration of Compound PC-1 and SBTI trypsin inhibitor to rats (hydromorphone in blood); details: for Maximum concentration (Cmax) of hydromorphone in rat blood: PC-1 20 mg/kg
[5] = Oral administration of Compound PC-1 and SBTI in the presence of ovalbumin to rats (hydromorphone in plasma); type: in vivo; details: for Maximum concentration (Cmax) of hydromorphone in rat plasma: PC-1 20 mg/kg
[6] = Oral administration of Compound PC-2 and SBTI trypsin inhibitor to rats; type: in vivo; details: for Cmax of hydromorphone in rat plasma: PC-2 20 mg/kg
[7] = Oral administration of Compound PC-3 and SBTI trypsin inhibitor to rats; type: in vivo; details: for Cmax of hydromorphone in rat plasma / Tmax of hydromorphone in rat plasma: PC-3 20 mg/kg
[8] = Oral administration of Compound PC-4 and SBTI trypsin inhibitor to rats; type: in vivo; details: for Cmax of HM in rat plasma / Tmax of HM in rat plasma: PC-4 20 mg/kg
[9] = molecular target: T1, trypsin from bovine pancreas (Bos taurus, UniProt P00760); test: In vitro trypsin conversion of prodrugs to hydromorphone and inhibition by trypsin inhibitor
T1 sequence (P00760 24-246): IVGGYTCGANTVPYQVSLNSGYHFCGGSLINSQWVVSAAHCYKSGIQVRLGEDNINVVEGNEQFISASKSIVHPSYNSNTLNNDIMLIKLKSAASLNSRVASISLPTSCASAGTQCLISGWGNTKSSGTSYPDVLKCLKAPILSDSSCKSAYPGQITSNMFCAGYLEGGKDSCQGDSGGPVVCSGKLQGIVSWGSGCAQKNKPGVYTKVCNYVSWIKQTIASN

trypsin = molecular target: T2, trypsin (Bos taurus, UniProt P00760); test: In vitro IC50 of trypsin inhibitors, modified trypsin assay; type: biochemical; details: trypsin inhibition
T2 sequence (P00760 24-246): T1 sequence (P00760 24-246)

[10] = PC-3 20 mg/kg, Compound 101 10 mg/kg
[11] = PC-4 20 mg/kg, Compound 101 10 mg/kg

CCOC(=O)N1CCN(C(=O)[C@H](CCCNC(=N)N)NS(=O)(=O)c2ccc3ccccc3c2)CC1 [Compound 101, (S)-ethyl 4-(5-guanidino-2-(naphthalene-2-sulfonamido)pentanoyl)piperazine-1-carboxylate]
effect of Compound 101 on release of hydromorphone from Compound PC-4 ([1]; rat PO, PC-4 20 mg/kg with Compound 101 10 mg/kg): attenuates Compound PC-4's ability to release hydromorphone, both with respect to suppressing Cmax and delaying Tmax
effect of Compound 101 on release of hydromorphone from Compound PC-3 ([2]; rat PO, PC-3 20 mg/kg with Compound 101 10 mg/kg): attenuates Compound PC-3's ability to release hydromorphone, both with respect to suppressing Cmax and delaying Tmax

CC(=O)NC(CCCNC(=N)N)C(=O)NCCN(C)C(=O)Oc1ccc2c3c1OC1C(=O)CCC4C(C2)N(C)CCC314 (stereo not shown) [Compound PC-1, hydromorphone 3-(N-methyl-N-(2-N′-acetylarginylamino)) ethylcarbamate]
Maximum concentration (Cmax) of hydromorphone in rat blood ([3]; BBSI 0 mg/kg, n = 4): 16.5 ± 5.3 ng/mL
Maximum concentration (Cmax) of hydromorphone in rat blood ([3]; BBSI 100 mg/kg, n = 3 (3 of the 4 rats)): 10.6 ± 5.9 ng/mL
Maximum concentration (Cmax) of hydromorphone in rat blood ([3]; BBSI 100 mg/kg, n = 4): 18.7 ± 17.0 ng/mL
Cmax of hydromorphone of the rat not included in n = 3 analysis ([3]; BBSI 100 mg/kg, one rat): 43 ng/mL
range of Cmax of hydromorphone of the other rats ([3]; rat PO, BBSI 100 mg/kg, the 3 rats of the n = 3 analysis): 6.8 to 17 ng/mL
Maximum concentration (Cmax) of hydromorphone in rat blood ([4]; SBTI 0 mg/kg): 16.5 ± 5.3 ng/mL
Maximum concentration (Cmax) of hydromorphone in rat blood ([4]; SBTI 10 mg/kg): 8.9 ± 1.8 ng/mL
Maximum concentration (Cmax) of hydromorphone in rat blood ([4]; SBTI 100 mg/kg): 6.0 ± 4.0 ng/mL
Maximum concentration (Cmax) of hydromorphone in rat blood ([4]; SBTI 500 mg/kg, lower limit of quantitation 5 ng/mL): <5 ng/mL
Maximum concentration (Cmax) of hydromorphone in rat blood ([4]; SBTI 1000 mg/kg, lower limit of quantitation 5 ng/mL): <5 ng/mL
Maximum concentration (Cmax) of hydromorphone in rat plasma ([5]; OVA 0 mg/kg, SBTI 0 mg/kg): 13.3 ± 3.7 ng/mL
Maximum concentration (Cmax) of hydromorphone in rat plasma ([5]; OVA 20 mg/kg, SBTI 0 mg/kg): 11.0 ± 5.4 ng/mL
Maximum concentration (Cmax) of hydromorphone in rat plasma ([5]; OVA 100 mg/kg, SBTI 0 mg/kg): 9.7 ± 3.1 ng/mL
Maximum concentration (Cmax) of hydromorphone in rat plasma ([5]; OVA 500 mg/kg, SBTI 0 mg/kg): 11.6 ± 2.5 ng/mL
Maximum concentration (Cmax) of hydromorphone in rat plasma ([5]; OVA 500 mg/kg, SBTI 500 mg/kg): 1.9 ± 0.9 ng/mL
Maximum concentration (Cmax) of hydromorphone in rat plasma ([5]; OVA 1000 mg/kg, SBTI 0 mg/kg): 10.3 ± 3.5 ng/mL
plasma Tmax of hydromorphone ([5]; rat PO, PC-1 20 mg/kg alone): 2.3 h
plasma Tmax of hydromorphone ([5]; rat PO, PC-1 20 mg/kg with 500 mg/kg OVA and 500 mg/kg SBTI): 8.0 h

CN(CCNC(=O)[C@@H](N)CCCNC(=N)N)C(=O)Oc1ccc2c3c1OC1C(=O)CCC4C(C2)N(C)CCC314 (stereo partly drawn) [Compound PC-2, [2-((S)-2-amino-5-guanidino-pentanoylamino)-ethyl]-methyl-carbamic acid hydromorphyl ester]
Cmax of hydromorphone in rat plasma ([6]; SBTI 0 mg/kg): 14.2 ± 2.6 ng/mL
Cmax of hydromorphone in rat plasma ([6]; SBTI 500 mg/kg): 7.3 ± 3.5 ng/mL

CC(=O)N[C@@H](CCCCN)C(=O)NCCN(C)C(=O)Oc1ccc2c3c1OC1C(=O)CCC4C(C2)N(C)CCC314 (stereo partly drawn) [Compound PC-3, (S)-2-Acetylamino-6-amino-hexanoic acid (2-methylamino-ethyl)-amide hydromorphone ester]
Cmax of hydromorphone in rat plasma ([7]; SBTI 500 mg/kg): 2.3 ± 1.7 ng/mL
Tmax of hydromorphone in rat plasma ([7]; SBTI 500 mg/kg): 7.3 h
Cmax of hydromorphone in rat plasma ([7]; no inhibitor): 9.0 ± 3.1 ng/mL
Tmax of hydromorphone in rat plasma ([7]; no inhibitor): 2.3 h
Cmax of HM in rat plasma [2, 10]: 3.8 ± 2.9 ng/mL
Tmax of HM in rat plasma [2, 10]: 3.5 h

CCN(CCNC(=O)[C@H](CCCNC(=N)N)NC(C)=O)C(=O)Oc1ccc2c3c1OC1C(=O)CCC4C(C2)N(C)CCC314 (stereo partly shown) [Compound PC-4]
Cmax of HM in rat plasma [1, 11]: 4.8 ± 1.4 ng/mL
Tmax of HM in rat plasma [1, 11]: 6.0 h
Cmax of HM in rat plasma ([8]; SBTI 500 mg/kg): 7.5 ± 2.1 ng/mL
Tmax of HM in rat plasma ([8]; SBTI 500 mg/kg): 6.5 h
Cmax of HM in rat plasma ([8]; no inhibitor, 7 rats): 7.7 ± 2.3 ng/mL
Tmax of HM in rat plasma ([8]; no inhibitor, 7 rats): 2.3 h
Rate of HM formation, umols/h/umol trypsin ([9]; no trypsin inhibitor, (n = 1)): 322 umols/h/umol trypsin
Rate of HM formation, umols/h/umol trypsin Average ± sd ([9]; with trypsin inhibitor 3,089 uM Compound 109): 3.27 ± 1.87 umols/h/umol trypsin

B1: ovalbumin: Albumin from chicken egg white (Catalog No. A7641, Sigma-Aldrich), used as a non-trypsin inhibitor protein control (protein, UniProt P01012 2-386, looked up)
Ovalbumin: GSIGAASMEFCFDVFKELKVHHANENIFYCPIAIMSALAMVYLGAKDSTRTQINKVVRFDKLPGFGDSIEAQCGTSVNVHSSLRDILNQITKPNDVYSFSLASRLYAEERYPILPEYLQCVKELYRGGLEPINFQTAADQARELINSWVESQTNGIIRNVLQPSSVDSQTAMVLVNAIVFKGLWEKAFKDEDTQAMPFRVTEQESKPVQMMYQIGLFRVASMASEKMKILELPFASGTMSMLVLLPDEVSGLEQLESIINFEKLTEWTSSNVMEERKIKVYLPRMKMEEKYNLTSVLMAMGITDVFSSSANLSGISSAESLKISQAVHAAHAEINEAGREVVGSAEAGVDAASVSEEFRADHPFLFCIKHIATNAVLFFGRCVSP
effect of ovalbumin on release of hydromorphone from Compound PC-1 ([5]; rat PO, PC-1 20 mg/kg with OVA 20 to 1000 mg/kg): does not significantly affect Compound PC-1's ability to release hydromorphone

B2: SBTI: trypsin inhibitor from Glycine max (soybean) (Catalog No. 93620, ˜10,000 units per mg, Sigma-Aldrich) (protein, UniProt P01070 25-205, looked up)
Trypsin inhibitor A: DFVLDNEGNPLENGGTYYILSDITAFGGIRAAPTGNERCPLTVVQSRNELDKGIGTIISSPYRIRFIAEGHPLSLKFDSFAVIMLCVGIPTEWSVVEDLPEGPAVKIGENKDAMDGWFRLERVSDDEFNNYKLVFCPQQAEDDKCGDIGISIDHDDGTRRLVVSKNKPLVVQFQKLDKESL
effect of SBTI on release of hydromorphone from Compound PC-1 ([4]; rat PO, PC-1 20 mg/kg with SBTI 10 to 1000 mg/kg): attenuates Compound PC-1's ability to release hydromorphone in a dose-dependent manner
IC50 (trypsin; Table 7): 270 nM
IC50 (trypsin; Table 20): 270 nM
effect of SBTI on release of hydromorphone from Compound PC-3 ([7]; rat PO, PC-3 20 mg/kg with SBTI 500 mg/kg): attenuates Compound PC-3's ability to release hydromorphone, both with respect to suppressing Cmax and delaying Tmax
effect of SBTI on release of hydromorphone from Compound PC-4 ([8]; rat PO, PC-4 20 mg/kg with SBTI 500 mg/kg): attenuates Compound PC-4's ability to release hydromorphone, at least with respect to delaying Tmax
effect of SBTI on release of hydromorphone from Compound PC-2 ([6]; rat PO, PC-2 20 mg/kg with SBTI 500 mg/kg): attenuates Compound PC-2's ability to release hydromorphone, both with respect to suppressing Cmax and delaying Tmax

Source: patent publication US20110262359A1, “COMPOSITIONS COMPRISING ENZYME-CLEAVABLE PRODRUGS OF ACTIVE AGENTS AND INHIBITORS THEREOF” (priority 2010, published 2011)
